According to patent publication USRE41315E1, “Modulators of dopamine neurotransmission” (NSAB, Filial af NeuroSearch Sweden AB, priority 1999, dated 2010):
Counter-ions that a name gives are not always drawn.

How the values were obtained:
[1] = system: 3,4-dihydroxyphenyl-acetic acid (DOPAC) in the striatum; assay: In vivo test: neurochemistry, 3,4-dihydroxyphenyl-acetic acid in the striatum; conditions: rat, n=4
Source text: After the behavioral activity sessions the rats were decapitated and their brains rapidly taken out and put on an ice-cold petri-dish. The limbic forebrain, the striatum, the frontal cortex and the remaining hemispheral parts of each rat were dissected and frozen. Each brain part was subsequently analyzed with respect to its content of monoamines and their metabolites. The monoaminergic indices analyzed were dopamine (DA), 3,4-dihydroxyphenyl-acetic acid (DOPAC), homovanillic acid (HVA), 3-methoxytyramine (3-MT), serotonin (5-HT), 5-hydroxyindole acetic acid (5-HIAA), and noradrenaline (NA). All monoaminergic indices in the dissected tissue were analyzed by means of HPLC with electrochemical detection as described by Svensson K, et al., 1986, Naunyn-Schmiedeberg's Arch Pharmacol 334: 234-245 and references cited therein.

[2] = In vivo test: pharmacokinetics in the rat
Method: To determine oral availability (F); and plasma half life (t1/2) of test compounds of this invention experiments performed in the rat were undertaken. On day one rats were implanted with one catheter in the jugular vein and one catheter in the carotid artery under ketamine anesthesia. On day three test compound is injected the either orally or in the jugular vein catheter. Blood samples are collected during 8 hours from the arterial catheter. The blood samples were heparinized and centrifuged. Plasma is collected from the centrifuged samples and frozen. The levels of test compound were subsequently determined in each sample by means of gas chromatography mass spectrometry (Hewlett-Packard 5972MSD). […]

[3] = system: spontaneous behavior (locomotor activity); assay: In vivo test: behavior, spontaneous locomotor activity in non-habituated/nonpretreated rats; conditions: rat; for locomotor activity in nonpretreated rats: 100 μmol/kg s.c., 30-60 min
[4] = system: d-amphetamine induced hyperactivity; assay: In vivo test: behavior, d-amphetamine induced hyperactivity; conditions: rat, d-amphetamine pretreated, n=4
[5] = system: locomotor activity of habituated rats; assay: In vivo test: behavior, locomotor activity of habituated rats

With CCCN1CCN(c2ccc(Cl)c(C(F)(F)F)c2)CC1 (as salt: HCl) the melting point was 268 °C.

Compound CCCN1CCN(c2cc(C(F)(F)F)ccc2Cl)CC1 (as salt: HCl) has a melting point of 234 °C.

For CCCN1CCN(c2ccc(F)c(C(F)(F)F)c2)CC1 (as salt: HCl), the melting point was 238 °C.

CCCN1CCN(c2cc(F)cc(C(F)(F)F)c2)CC1 (as salt: HCl) gave a melting point of 242 °C.

Compound CCCN1CCC(c2ccc(Cl)c(C(F)(F)F)c2)CC1 (as salt: HCl) [Example 9, 4-(4-Chloro-3-trifluoromethyl-phenyl)-1-propyl-piperidine] has a melting point of 218 to 220 °C.

For CCCN1CCN(c2ccc(Cl)c([N+](=O)[O-])c2)CC1 (as salt: HCl) [Example 19, 1-(4-Chloro-3-nitro-phenyl)-4-propyl-piperazine], the melting point was 249 °C.

Work on CCCN1[C@H](C)CN(c2ccc(Cl)c(C(F)(F)F)c2)C[C@@H]1C (as salt: HCl) [Example 33, cis-4-(4-Chloro-3-trifluoromethyl-phenyl)-2,6-dimethyl-1-propyl-piperazine] yielded a melting point of 256 °C.

For CCCN1[C@H](C)CN(c2ccc(F)c(C(F)(F)F)c2)C[C@@H]1C (as salt: HCl) [Example 34, cis-4-(4-Fluoro-3-trifluoromethyl-phenyl)-2,6-dimethyl-1-propyl-piperazine], the melting point was 221 °C.

CCCN1[C@H](C)CN(c2ccc(Cl)c(Cl)c2)C[C@@H]1C (as salt: HCl) [Example 35, cis-4-(3,4-dichloro-phenyl)-2,6-dimethyl-1-propyl-piperazine] showed a melting point of 225 °C.

For CCCN1CCC(c2ccc(F)c(C(F)(F)F)c2)CC1 (as salt: HCl) [Example 43, 4-(4-Fluoro-3-trifluoromethylphenyl)-1-propyl-piperidine], the melting point was 195 to 197 °C.

Work on CCCN1CCC(c2cc(F)cc(C(F)(F)F)c2)CC1 (as salt: HCl) [Example 44, 4-(3-Fluoro-5-trifluoromethylphenyl)-1-propyl-piperidine] yielded a melting point of 215 °C.

In the case of CCCN1CCN(c2cccc(C(F)(F)F)c2)CC1 [1-propyl-4-(3-trifluoromethyl-phenyl)-piperazine, reference compound], the “3,4-dihydroxyphenyl-acetic acid in the striatum” value (“3,4-dihydroxyphenyl-acetic acid” below) ([1]; 50 μmol/kg s.c.) is reported as 3358±162 ng/g tissue, the “oral availability (F)” value [2] is reported as 9,5% and the “behavioral inhibition (locomotor activity)” value ([3]; 50 μmol/kg s.c., n=4) is reported as 271±137 cm/60 min.

For CCCN1CCC(c2ccc(Cl)c(C(F)(F)F)c2)CC1 [Example 9, 4-(4-Chloro-3-trifluoromethyl-phenyl)-1-propyl-piperidine], the “3,4-dihydroxyphenyl-acetic acid” value ([1]; 50 μmol/kg s.c.) was 1680±136 ng/g tissue, the d-amphetamine induced hyperactivity ([4]; 50 μmol/kg s.c.) was 3399±1247 cm/30 min and the “oral availability (F)” value [2] was 55%. The “spontaneous behavior (distance traveled)” value ([3]; 50 μmol/kg s.c.) was 944±114 cm/30 min and the “locomotor activity of habituated rats” value ([5]; habituated rats, 50 μmol/kg s.c.) was 1300±761 cm/60 min.

For CCCN1CCN(c2ccc(Cl)c([N+](=O)[O-])c2)CC1 [Example 19, 1-(4-Chloro-3-nitro-phenyl)-4-propyl-piperazine], the “3,4-dihydroxyphenyl-acetic acid” value ([1]; 100 μmol/kg s.c.) was 1693±104 ng/g tissue, the d-amphetamine induced hyperactivity ([4]; 100 μmol/kg s.c.) was 3767±2332 cm/60 min and the “locomotor activity in nonpretreated rats” value ([3]; n=4) was 266±89 cm/30 min.

With CCCN1[C@H](C)CN(c2ccc(F)c(C(F)(F)F)c2)C[C@@H]1C [Example 34, cis-4-(4-Fluoro-3-trifluoromethyl-phenyl)-2,6-dimethyl-1-propyl-piperazine] the “3,4-dihydroxyphenyl-acetic acid” value ([1]; 33 μmol/kg s.c.) was 1278±143 ng/g tissue and the “spontaneous behavior in the habituated rat” value ([5]; habituated rat, 33 μmol/kg s.c., n=4) was 919±143 cm/60 min.

For CCCN1[C@H](C)CN(c2ccc(Cl)c(Cl)c2)C[C@@H]1C [Example 35, cis-4-(3,4-dichloro-phenyl)-2,6-dimethyl-1-propyl-piperazine], the d-amphetamine induced hyperactivity ([4]; 100 μmol/kg s.c.) was 6514±3374 cm/60 min.

With CCCN1CCC(c2ccc(F)c(C(F)(F)F)c2)CC1 [Example 43, 4-(4-Fluoro-3-trifluoromethylphenyl)-1-propyl-piperidine] the “3,4-dihydroxyphenyl-acetic acid” value ([1]; 100 μmol/kg s.c.) was 1895±100 ng/g tissue and the “locomotor activity in nonpretreated rats” value ([3]; n=4) was 540±128 cm/30 min.
